Source: PubChem BioAssay AID1963967 (Molecular Pharmacology Branch, DTP, NCI, 2024)

Test system: 855422-203-R-J1-PDC spheroids with HUVEC/MSC, viability
Assay: Anticancer human tumor 855422-203-R-J1-PDC patient-derived bladder carcinoma cell line growth inhibition [PI3K]
Conditions: for viability, T/C: stronger effect = lower value
In short: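 We assembled tumor spheroids that included a stromal compartment of HUVEC and MSCs, then exposed them to targeted agents alone and together with PI3K pathway inhibitors. Concentration series descended by half-log from clinically achievable Cmax levels. Viability served as the endpoint.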

[1] = curve of first compound, second compound 0.00316 µM
[2] = curve of first compound, second compound 0.01 µM
[3] = curve of first compound, second compound 0.0316 µM
[4] = curve of first compound, second compound 0.1 µM
[5] = curve of first compound, second compound 0.316 µM
[6] = curve of first compound, second compound 1 µM
[7] = second compound 0.00316 µM, first compound 0.0316 µM
[8] = second compound 0.00316 µM, first compound 0.1 µM
[9] = second compound 0.00316 µM, first compound 0.316 µM
[10] = second compound 0.00316 µM, first compound 1 µM
[11] = second compound 0.00316 µM, first compound 3.16 µM
[12] = second compound 0.00316 µM, first compound 10 µM
[13] = second compound 0.01 µM, first compound 0.0316 µM
[14] = second compound 0.01 µM, first compound 0.1 µM
[15] = second compound 0.01 µM, first compound 0.316 µM
[16] = second compound 0.01 µM, first compound 1 µM
[17] = second compound 0.01 µM, first compound 3.16 µM
[18] = second compound 0.01 µM, first compound 10 µM
[19] = second compound 0.0316 µM, first compound 0.0316 µM
[20] = second compound 0.0316 µM, first compound 0.1 µM
[21] = second compound 0.0316 µM, first compound 0.316 µM
[22] = second compound 0.0316 µM, first compound 1 µM
[23] = second compound 0.0316 µM, first compound 3.16 µM
[24] = second compound 0.0316 µM, first compound 10 µM
[25] = second compound 0.1 µM, first compound 0.0316 µM
[26] = second compound 0.1 µM, first compound 0.1 µM
[27] = second compound 0.1 µM, first compound 0.316 µM
[28] = second compound 0.1 µM, first compound 1 µM
[29] = second compound 0.1 µM, first compound 3.16 µM
[30] = second compound 0.1 µM, first compound 10 µM
[31] = second compound 0.316 µM, first compound 0.0316 µM
[32] = second compound 0.316 µM, first compound 0.1 µM
[33] = second compound 0.316 µM, first compound 0.316 µM
[34] = second compound 0.316 µM, first compound 1 µM
[35] = second compound 0.316 µM, first compound 3.16 µM
[36] = second compound 0.316 µM, first compound 10 µM
[37] = second compound 1 µM, first compound 0.0316 µM
[38] = second compound 1 µM, first compound 0.1 µM
[39] = second compound 1 µM, first compound 0.316 µM
[40] = second compound 1 µM, first compound 1 µM
[41] = second compound 1 µM, first compound 3.16 µM
[42] = second compound 1 µM, first compound 10 µM
[43] = second compound 0.0316 µM, first compound 0.000316 µM
[44] = second compound 0.0316 µM, first compound 0.001 µM
[45] = second compound 0.0316 µM, first compound 0.00316 µM
[46] = second compound 0.0316 µM, first compound 0.01 µM
[47] = second compound 0.1 µM, first compound 0.000316 µM
[48] = second compound 0.1 µM, first compound 0.001 µM
[49] = second compound 0.1 µM, first compound 0.00316 µM
[50] = second compound 0.1 µM, first compound 0.01 µM
[51] = second compound 0.316 µM, first compound 0.000316 µM
[52] = second compound 0.316 µM, first compound 0.001 µM
[53] = second compound 0.316 µM, first compound 0.00316 µM
[54] = second compound 0.316 µM, first compound 0.01 µM
[55] = second compound 1 µM, first compound 0.000316 µM
[56] = second compound 1 µM, first compound 0.001 µM
[57] = second compound 1 µM, first compound 0.00316 µM
[58] = second compound 1 µM, first compound 0.01 µM
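Also: agents incubated with spheroids for one week before read-out.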
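For viability, T/C in this document: 100% = DMSO vehicle-treated control wells.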

## CNC(=O)c1ccc(N2C(=S)N(c3ccc(C#N)c(C(F)(F)F)c3)C(=O)C2(C)C)cc1F + COc1c(OCCCN2CCOCC2)ccc2c3n(c(=NC(=O)c4cnc(N)nc4)nc12)CCN3
[1]
  IC50: > 10000 nM
[2]
  IC50: > 10000 nM
[3]
  IC50: > 10000 nM
[4]
  IC50: < 31.6 nM
[5]
  IC50: < 31.6 nM
[6]
  IC50: < 31.6 nM
[7]
  viability, T/C: 94.3%
[8]
  viability, T/C: 79.5%
[9]
  viability, T/C: 90.7%
[10]
  viability, T/C: 83.1%
[11]
  viability, T/C: 71.5%
[12]
  viability, T/C: 66.5%
[13]
  viability, T/C: 74%
[14]
  viability, T/C: 85.1%
[15]
  viability, T/C: 74.5%
[16]
  viability, T/C: 76.1%
[17]
  viability, T/C: 81.4%
[18]
  viability, T/C: 68.5%
[19]
  viability, T/C: 63.4%
[20]
  viability, T/C: 69.3%
[21]
  viability, T/C: 70.8%
[22]
  viability, T/C: 61.2%
[23]
  viability, T/C: 62.4%
[24]
  viability, T/C: 58.2%
[25]
  viability, T/C: 30.2%
[26]
  viability, T/C: 32.3%
[27]
  viability, T/C: 30.2%
[28]
  viability, T/C: 32.9%
[29]
  viability, T/C: 34.5%
[30]
  viability, T/C: 29.4%
[31]
  viability, T/C: 11.5%
[32]
  viability, T/C: 10.8%
[33]
  viability, T/C: 8.16%
[34]
  viability, T/C: 12.7%
[35]
  viability, T/C: 9.19%
[36]
  viability, T/C: 10.1%
[37]
  viability, T/C: 4.1%
[38]
  viability, T/C: 4.74%
[39]
  viability, T/C: 4.6%
[40]
  viability, T/C: 4.66%
[41]
  viability, T/C: 5.91%
[42]
  viability, T/C: 4.28%

## Cn1nccc1Nc1nccc(-c2ccn(C(CO)c3ccc(Cl)c(F)c3)c(=O)c2)n1 (stereo not given)
Compound 0.0316 µM
  viability, T/C: 112% [middle of 4 runs]
Compound 0.1 µM
  viability, T/C: 99.8% [middle of 4 runs]
Compound 0.316 µM
  viability, T/C: 108% [middle of 4 runs]
Compound 1 µM
  viability, T/C: 90.7% [middle of 4 runs]
Compound 3.16 µM
  viability, T/C: 93.1% [middle of 4 runs]
Compound 10 µM
  viability, T/C: 44% [middle of 4 runs]
Curve of compound
  IC50: 8.75 µM [middle of 4 runs]

## CCCS(=O)(=O)Nc1ccc(F)c(C(=O)c2c[nH]c3ncc(-c4ccc(Cl)cc4)cc23)c1F + COc1c(OCCCN2CCOCC2)ccc2c3n(c(=NC(=O)c4cnc(N)nc4)nc12)CCN3
[1]
  IC50: 4390 nM
[2]
  IC50: 4840 nM
[3]
  IC50: 3060 nM
[4]
  IC50: < 31.6 nM
[5]
  IC50: < 31.6 nM
[6]
  IC50: < 31.6 nM
[7]
  viability, T/C: 97.6%
[8]
  viability, T/C: 83.8%
[9]
  viability, T/C: 87.2%
[10]
  viability, T/C: 82.5%
[11]
  viability, T/C: 71.3%
[12]
  viability, T/C: 0.07%
[13]
  viability, T/C: 105%
[14]
  viability, T/C: 89.5%
[15]
  viability, T/C: 83%
[16]
  viability, T/C: 90.6%
[17]
  viability, T/C: 78.9%
[18]
  viability, T/C: 0.31%
[19]
  viability, T/C: 68.2%
[20]
  viability, T/C: 75.1%
[21]
  viability, T/C: 78.6%
[22]
  viability, T/C: 67.1%
[23]
  viability, T/C: 49.7%
[24]
  viability, T/C: 0.93%
[25]
  viability, T/C: 34.5%
[26]
  viability, T/C: 35.3%
[27]
  viability, T/C: 34.1%
[28]
  viability, T/C: 32.4%
[29]
  viability, T/C: 23.9%
[30]
  viability, T/C: 1.58%
[31]
  viability, T/C: 11.9%
[32]
  viability, T/C: 11.4%
[33]
  viability, T/C: 11.9%
[34]
  viability, T/C: 11.8%
[35]
  viability, T/C: 8.59%
[36]
  viability, T/C: 0.86%
[37]
  viability, T/C: 4.83%
[38]
  viability, T/C: 3.64%
[39]
  viability, T/C: 4.81%
[40]
  viability, T/C: 6.51%
[41]
  viability, T/C: 3.75%
[42]
  viability, T/C: 2%

## CC(=O)c1c(C)c2cnc(Nc3ccc(N4CCNCC4)cn3)nc2n(C2CCCC2)c1=O + CC(Nc1ncnc2nc[nH]c12)c1cc2cccc(Cl)c2c(=O)n1-c1ccccc1
[3]
  IC50: > 100 nM
[4]
  IC50: > 100 nM
[5]
  IC50: > 100 nM
[6]
  IC50: > 100 nM
Curve of first compound, second compound 3.16 µM
  IC50: > 100 nM
Curve of first compound, second compound 10 µM
  IC50: 65.4 nM
[43]
  viability, T/C: 106%
[44]
  viability, T/C: 95.8%
[45]
  viability, T/C: 105%
[46]
  viability, T/C: 93.4%
[19]
  viability, T/C: 100%
[20]
  viability, T/C: 79%
[47]
  viability, T/C: 111%
[48]
  viability, T/C: 92.5%
[49]
  viability, T/C: 105%
[50]
  viability, T/C: 99.8%
[25]
  viability, T/C: 94.4%
[26]
  viability, T/C: 76.2%
[51]
  viability, T/C: 101%
[52]
  viability, T/C: 108%
[53]
  viability, T/C: 110%
[54]
  viability, T/C: 95.3%
[31]
  viability, T/C: 105%
[32]
  viability, T/C: 81.3%
[55]
  viability, T/C: 91.9%
[56]
  viability, T/C: 102%
[57]
  viability, T/C: 102%
[58]
  viability, T/C: 101%
[37]
  viability, T/C: 95.9%
[38]
  viability, T/C: 73.9%
Second compound 3.16 µM, first compound 0.000316 µM
  viability, T/C: 98.7%
Second compound 3.16 µM, first compound 0.001 µM
  viability, T/C: 96.4%
Second compound 3.16 µM, first compound 0.00316 µM
  viability, T/C: 101%
Second compound 3.16 µM, first compound 0.01 µM
  viability, T/C: 93.2%
Second compound 3.16 µM, first compound 0.0316 µM
  viability, T/C: 85.4%
Second compound 3.16 µM, first compound 0.1 µM
  viability, T/C: 54%
Second compound 10 µM, first compound 0.000316 µM
  viability, T/C: 84.7%
Second compound 10 µM, first compound 0.001 µM
  viability, T/C: 84.3%
Second compound 10 µM, first compound 0.00316 µM
  viability, T/C: 80%
Second compound 10 µM, first compound 0.01 µM
  viability, T/C: 73.9%
Second compound 10 µM, first compound 0.0316 µM
  viability, T/C: 74.3%
Second compound 10 µM, first compound 0.1 µM
  viability, T/C: 36.9%

## CC(C)n1nc(-c2ccc3oc(N)nc3c2)c2c(N)ncnc21 + CC(Nc1ccc2c(c1)OCCn1cc(N3C(=O)OCC3C(F)F)nc1-2)C(N)=O
[1]
  IC50: 51.8 nM
[2]
  IC50: 43.9 nM
[3]
  IC50: 38 nM
[4]
  IC50: 26.8 nM
[5]
  IC50: 6.08 nM
[6]
  IC50: < 0.316 nM
Second compound 0.00316 µM, first compound 0.000316 µM
  viability, T/C: 113%
Second compound 0.00316 µM, first compound 0.001 µM
  viability, T/C: 90.1%
Second compound 0.00316 µM, first compound 0.00316 µM
  viability, T/C: 108%
Second compound 0.00316 µM, first compound 0.01 µM
  viability, T/C: 92.3%
[7]
  viability, T/C: 74.2%
[8]
  viability, T/C: 18.3%
Second compound 0.01 µM, first compound 0.000316 µM
  viability, T/C: 87.7%
Second compound 0.01 µM, first compound 0.001 µM
  viability, T/C: 92.9%
Second compound 0.01 µM, first compound 0.00316 µM
  viability, T/C: 98.7%
Second compound 0.01 µM, first compound 0.01 µM
  viability, T/C: 81.4%
[13]
  viability, T/C: 63.1%
[14]
  viability, T/C: 19%
[43]
  viability, T/C: 91%
[44]
  viability, T/C: 84.4%
[45]
  viability, T/C: 82%
[46]
  viability, T/C: 72%
[19]
  viability, T/C: 59.6%
[20]
  viability, T/C: 14.4%
[47]
  viability, T/C: 71.8%
[48]
  viability, T/C: 72.7%
[49]
  viability, T/C: 78.7%
[50]
  viability, T/C: 69.9%
[25]
  viability, T/C: 46.6%
[26]
  viability, T/C: 11.4%
[51]
  viability, T/C: 59.3%
[52]
  viability, T/C: 55.9%
[53]
  viability, T/C: 58.7%
[54]
  viability, T/C: 43.3%
[31]
  viability, T/C: 32.7%
[32]
  viability, T/C: 7.57%
[55]
  viability, T/C: 39.8%
[56]
  viability, T/C: 38.4%
[57]
  viability, T/C: 36%
[58]
  viability, T/C: 34%
[37]
  viability, T/C: 24.1%
[38]
  viability, T/C: 6.71%
